Measured values from patent US20180346430A1, “TRIFLUOROACETYL HYDRAZIDE COMPOUNDS AND METHODS OF PREPARATION AND USES THEREOF” (GUANGHOU MAGPIE PHARMACEUTICALS CO., LTD., priority 2014, published 2018).

What was measured:
[1] = system: MEF2 transcription activity in PC12 cells; assay: MEF2 luciferase reporter assay in stably transfected PC12 cells; type: cell-based; conditions: 24 h incubation, **P<0.01, FIG. 9
Description: The PC12 was transfected by cloning the MEF2 reporter gene pGreenFire1TM-MEF2-EF1 lentivector. Stable transfected PC12 cells, as cultured in a conventional manner, were seeded on a 96-well plate with T-006 added in different concentrations, were incubated for 24 h. The activity was measured by the Luciferase reporter assay kit (Promega, USA). […] Compared with the IAA group, **P<0.01.

Cortical neurons [2] = assay: Protective effect on t-BHP-induced cortical neuronal injury (MTT); type: cell-based, SD fetal rat; conditions: FIG. 6
Description: Cortical neurons of E16-18 days SD fetal rat were seeded on a 96-well plate and inoculated in a 5% CO2 incubator at 37° C. for 8 days. […] The neurons were set to incubator to cultivate for 24 hours, and then MTT was added to each well. Four hours later, the absorbance value was measured at 570 nm using a microplate reader. […] Compared with the t-BHP group, ****P<0.0001.

PC12 cells [3] = assay: t-BHP-induced apoptosis in PC12 cells (Hoechst staining); type: cell-based; conditions: pre-incubated 2 h, t-BHP 100 μM 24 h, FIG. 13A, 13B
Description: (§1) PC12 cells were seeded on a 96-well plate and inoculated in a 5% CO2 incubator at 37° C. for 24 hours, and then T-006 and TMP (100 M) in different concentration gradients were added to be pre-incubated for 2 hours. Then the medium was aspirated, and 100 μl t-BHP (100 μM) was added to each well except the wells of the control group, and the cells were cultured in an incubator for 24 hours. Hoechst working fluid was added and the number of PC12 cells was observed and counted under fluorescence microscope. […] (B) PC12 cell apoptosis statistics. […] PC12 cells were seeded on a 96-well plate and inoculated in a 5% CO2 incubator at 37° C. for 24 hours, and then T-006 and TMP (100 M) in different concentration gradients were added to be pre-incubated for 2 hours. 2 hours later, 100 μl t-BHP (100 μM) was added to each well except the control group for induction. After completion of the induction, JC-1 working solution was added to each well and mitochondrial membrane potential was monitored and analyzed using flow cytometry. Compared with the control group, ### p<0.001; compared with t-BHP, *p<0.05, **p<0.01 and ***p<0.001.

PC12 cells [4] = assay: t-BHP-induced mitochondrial membrane potential disorder in PC12 cells (JC-1, flow cytometry); type: cell-based; conditions: pre-incubated 2 h, t-BHP 100 μM, FIG. 13C
Description: as §1

Cortical neurons [5] = assay: Protective effect on IAA-induced cortical neuronal injury (MTT); type: cell-based, SD fetal rat; conditions: FIG. 5
Description: Cortical neurons of E16-18 day SD fetal rat were seeded on a 96-well plate and inoculated in a 5% CO2 incubator at 37° C. for 8 days. On day 8, each of the compounds (T-006, TMP, Edaravone) was added with different concentration gradients, and 50 μl IAA (40 μM) was added to each well except those of the control group. Then the neurons were set to incubator to cultivate for 24 hours, and then MTT was added to each well. Four hours later, the absorbance was measured at 570 nm using a microplate reader. […] Compared with the IAA group, ****P<0.0001.

PC12 cells [6] = assay: Protective effect on IAA-induced PC12 cell injury (MTT); type: cell-based; conditions: FIG. 3
Description: PC12 cells were seeded on a 96-well plate and inoculated in a 5% CO2 incubator at 37° C. for 24 hours. Then 100 μl of IAA (50 μM) was added for induction for 2 hours. Two hours later, the medium was aspirated, and each of the compounds (T-006, TMP, Edaravone) was added and the cells were cultured for 24 hours. After 24 hours of incubation, MTT was added to each well. Four hours later, the absorbance was measured at 570 nm using a microplate reader. […] Compared with the IAA group, ****P<0.0001.

[7] = system: Scopolamine-induced memory impairment in mice; assay: Scopolamine-induced memory impairment in mice, water maze test; type: in vivo, Kunming mice; conditions: for Improvement of scopolamine-induced memory impairment: water maze, **p<0.01 vs scopolamine model group, FIG. 10A, 10B
Description: In this example, Kunming mice were selected and divided into normal control group (Ctrl), Scopolamine group (Sco), Donepezil treatment group (Sco+3 mg/kg donepezil), 1 and 10 mg T-006 treatment group (Sco+1 mg/kg T-006 and Sco+10 mg/kg T-006). Intragastric administration was performed for two weeks, and after the final administration water maze test was conducted for 4 days. Thirty minutes before the test, abdominal injection of scopolamine (1 mg/kg) and model were performed. On day 5, space search test was conducted, and data were expressed as Mean±SD (n=9 per group).

[8] = system: Primary cerebellar granule cells; assay: Protective effect on MPP+-induced cerebellar granule injury (MTT); type: cell-based, SD fetal rat; conditions: pre-incubated 2 h, MPP+ 35 μM 24 h, concentration-dependent, **P<0.01 vs MPP+ group, FIG. 8
Description: (§2) Primary cerebellar granule cells, extracted from 7-8 days, 15-20 g SD fetal rat, were seeded on a 96-well plate and inoculated in a 5% CO2 incubator at 37° C. for 8 days. On day 8, 90 μL of the compound (T-006) was added with different concentration gradients, then the cells were set to an incubator to cultivate for 2 hours. Then 10 μL of MPP^+ (final concentration of 35 μM) was added to each well except those of the control group. The cells were set to incubator to cultivate for 24 hours, and then MTT was added to each well. Four hours later, the absorbance value was measured at 570 nm using a microplate reader. […] Compared with the MPP^+ group, **P<0.01.

PC12 cells [9] = assay: Differentiation of PC12 cells into neurons with synapse growth; type: cell-based; conditions: 72 h, **P<0.01 vs control group, FIG. 11
Description: PC12 cells were seeded on 6-well plate and inoculated in a 5% CO2 incubator at 37° C. for 24 hours. Control group was unchanged; NGF control group: serum-free F-12K+50 ng/mL NGF; drug treatment group: serum-free F-12K with different concentrations of T-006. After 72 hours of incubation, picture was taken under an inverted microscope with 5 shoots at random for each hole. If the cell synapse length is more than 2 times the cell, it can be regarded as cell differentiation and synapse formation. […] Compared with the control group, **P<0.01.

PC12 cells [10] = assay: t-BHP-induced ROS and RNS in PC12 cells (DCF-DA, HFP, DAF-FM, DHR123 probes); type: cell-based; conditions: pre-incubated 2 h, t-BHP 100 μM 6 h; total ROS, hydroxyl radicals, nitric oxide radicals, peroxynitrite; FIG. 14A-14D
Description: PC12 cells were seeded on 6-well plate and inoculated in a 5% CO2 incubator at 37° C. for 24 hours, and then T-006 and TMP (100 M) in different concentration gradients were added to be pre-incubated for 2 hours. Then the medium was aspirated, and 100 μl t-BHP (100 μM) was added to each well except the wells of the control group, and the cells were cultured in an incubator for 6 hours. Consequently, DCF-DA probes, HFP probes, DAF-FM probes and DHR123 probes were added respectively to determine the total ROS, hydroxyl radicals, nitric oxide radicals and peroxynitrite. (A) DCF-DA probe for determining intracellular total ROS. (B) HFP probe for determining intracellular hydroxyl radicals. (C) DAF-FM probe for determining nitric oxide free radicals. (D) DHR123 probe for determining intracellular peroxynitrite. Compared with the control group, ### p<0.001; compared with t-BHP, *p<0.05, **p<0.01 and ***p<0.001.

PC12 cells [11] = assay: Protective effect on t-BHP-induced PC12 cell injury (MTT); type: cell-based; conditions: FIG. 4
Description: PC12 cells were seeded on a 96-well plate and inoculated in a 5% CO2 incubator at 37° C., for 24 hours. Then each compound (T-006, TMP, Edaravone) was added in different concentration gradients to pre-incubated for 2 hours. Two hours later, the medium was aspirated, and 100 μl t-BHP (100 μM) was added to each well except those of the control group, then the cells were cultured in an incubator for 24 hours. Four hours later, MTT was added into each of the wells, and the absorbance was measured at 570 nm using a microplate reader. […] Compared with t-BHP group, ****P<0.0001.

[12] = system: Primary cerebellar granule cells; assay: Protective effect on glutamate-induced cerebellar granule injury (MTT); type: cell-based, SD fetal rat; conditions: pre-incubated 2 h, glutamate 75 μM 24 h, concentration-dependent, **P<0.01 vs glutamate group, FIG. 7
Description: as §2, with “day,” for “days,”, “glutamate” for “MPP^+”, “75” for “35”

[13] = comparison with TMP and Edaravone

Cc1ccc(N(/N=C/c2nc(C)c(C)nc2C)C(=O)C(F)(F)F)c(C)c1 [T-006]
MEF2 transcriptional activity in PC12 cells [1]: significantly activates ME12 transcriptional activity | Protective effect on t-BHP-induced cortical neuronal injury (Cortical neurons [2]; 24 h, MTT, ****P<0.0001 vs t-BHP group): significant protective effect | Protective effect on t-BHP-induced cortical neuronal injury compared with TMP and Edaravone (Cortical neurons [2]; [13]): much stronger than that of the parent compound TMP and Edaravone | t-BHP-induced PC12 cell apoptosis (PC12 cells [3]): reduced t-BHP-induced PC12 cell apoptosis | t-BHP-induced mitochondrial membrane potential disorder in PC12 cells (PC12 cells [4]): improved t-BHP-induced mitochondrial membrane potential disorder | Protective effect on IAA-induced cortical neuronal injury (Cortical neurons [5]; IAA 40 μM, 24 h, MTT, ****P<0.0001 vs IAA group): significant protective effect | Protective effect on IAA-induced cortical neuronal injury compared with TMP and Edaravone (Cortical neurons [5]; [13]): much stronger than that of the parent compound TMP and Edaravone | Protective effect on IAA-induced PC12 cell injury (PC12 cells [6]; IAA 50 μM 2 h, then compound 24 h, MTT, ****P<0.0001 vs IAA group): significant protective effect | Protective effect on IAA-induced PC12 cell injury compared with TMP and Edaravone (PC12 cells [6]; [13]): much stronger than that of the parent compound TMP and Edaravone | Improvement of scopolamine-induced memory impairment ([7]; 1 mg/kg intragastric for two weeks): significantly improved the memory impairment induced by scopolamine | Improvement of scopolamine-induced memory impairment compared with 3 mg/kg donepezil group ([7]; 10 mg/kg T-006 vs 3 mg/kg donepezil, $p<0.05): significantly better than 3 mg/kg donepezil group | Improvement of scopolamine-induced memory impairment ([7]; 10 mg/kg intragastric for two weeks): significantly improved the memory impairment induced by scopolamine | Protective effect on MPP+-induced primary cerebellar granule injury [8]: significant protective effect | Differentiation of PC12 cells into neurons, synapse formation and growth (PC12 cells [9]; serum-free F-12K, different concentrations, concentration-dependent): significantly promote differentiation of PC12 cells into neurons, synapse formation and growth | Elevation of ROS and RNS in t-BHP-induced PC12 cells (PC12 cells [10]): Reduced the Elevation of ROS and RNS | Protective effect on t-BHP-induced PC12 cell injury compared with TMP or Edaravone (PC12 cells [11]; comparison with TMP or Edaravone): much stronger than that of the parent compound TMP or Edaravone | Protective effect on t-BHP-induced PC12 cell injury (PC12 cells [11]; pre-incubated 2 h, t-BHP 100 μM 24 h, MTT, ****P<0.0001 vs t-BHP group): significant protective effect | Protective effect on glutamate-induced primary cerebellar granule injury [12]: significant protective effect

COc1cc2c(cc1OC)C(=O)C(CC1CCN(Cc3ccccc3)CC1)C2 (centres unmarked) [donepezil, reference compound]
Improvement of scopolamine-induced memory impairment ([7]; 3 mg/kg intragastric for two weeks): significantly improved the memory impairment induced by scopolamine

NGF: positive control NGF, 50 ng/mL, in the PC12 differentiation test
Differentiation of PC12 cells into neurons, synapse formation and growth (PC12 cells [9]; serum-free F-12K + 50 ng/mL NGF, positive control): significantly promote differentiation of PC12 cells into neurons, synapse formation and growth
